Results published in patent publication US12077513B2, “Process route of compound of formula (IV), crystal form and preparation method therefor” (SHANDONG DANHONG PHARMACEUTICAL CO., LTD., priority 2018, dated 2024).
Values belong to the molecule of their own block, whether it stands above or below them.

Tests used:
[1] = Solid stability test, crystal form characterized by XRPD; type: physicochemical
Procedure: An electronic balance was used to accurately weigh 60 mg sample of crystal form B of compound (IV) (3 samples in parallel for each stability test condition). The samples were placed in a dry and clean 5 mL beaker and spread into a thin layer. The aluminum foil was pierced with holes and placed on the beaker, fixed with rubber bands. The beaker was placed in tbc environment of various stability test conditions and remained for sampling at investigation time. The samples were investigated at 60° C. (5 days, 10 days), 25° C./92.5% RH (5 days, 10 days), 40° C./75% RH (one month, two months, three months), 60° C./75% RH (one month, two months) and light (10 days) conditions. X-ray powder diffraction (XRPD) was used to characterize the solid under various conditions.

[2] = molecular target: Human recombinant VAP-1/SSAO enzyme (Homo sapiens (Human), UniProt Q16853); assay: Human VAP-1 enzyme activity assay (Amplex Red Monoamine Oxidase Kit); type: biochemical; conditions: for Inhibitory activity against human recombinant VAP-1/SSAO enzyme (conclusion in words): in vitro
Procedure: Human VAP-1 Enzyme Activity Assay:
Amplex® Red Monoamine Oxidase Kit (Invitrogen #A12214) was used to determine the inhibitory effects of the sample on VAP-1 enzyme activity. 100 nL Test compound (the solvent was DMSO) that had been gradiently diluted was added to a 384-well plate. 25 μL 10 nM VAP-1 enzyme solution was added, and the solution was incubated at room temperature for 30 minutes. The substrate mixture which had been added […] (200 μM Amplex Red, 1 U/mL HRP, 1 mM Benzylamine) was incubated at room temperature for 60 minutes. After the incubation, the fluorescence signal was read with a microplate reader Envision (excitation light wavelength 530-560 nm, emission light wavelength 590 nm). The fluorescence signal value after removing the background signal was analyzed with Prism software. The IC50 of the sample to the VAP-1 enzyme was calculated.

VAP-1/SSAO cell = VAP-1/SSAO cell (Homo sapiens (Human), UniProt Q16853); assay: VAP-1 cell activity assay (HUVEC or CHO cells transfected with VAP-1/pCDNA (3.1) plasmid, Amplex Red); type: cell-based; conditions: for Inhibitory activity against VAP-1/SSAO cells (conclusion in words): in vitro
Procedure: Amplex® Red Monoamine Oxidase Kit (Invitrogen #A12214) was used to determine the inhibitory effect of the sample on VAP-1 enzyme activity.
The HUVEC or CHO cells were plated onto a 6-well plate at a density of 0.8M/well, placed in a 37° C., 5% CO2 incubator for 24 hours, and then transfected with Lipo2000 reagent and VAP-1/pCDNA (3.1) plasmid. The medium was changed after 5 h (Lipo2000 is toxic to cells). After 24 h, the cells digested and plated into a 384-well plate at a density of 25 μl, 10000 cells/well, 6-7 h, and the cell medium was changed to the medium without FBS and the cell plate was placed in a 37° C. 5% CO2 incubator overnight.
• 1) Compound dilution: 4-fold serial dilution with 100% DMSO and diluted at 10 points. The initial concentration of the test compound was 0.5 mM (final concentration was […]); ECHO was used to transfer 100 nL of the compound solution to a 384-well cell detection plate. Negative control well: 100 nL DMSO; background control well: 100 nL DMSO+25 μL medium. • 2) Reaction was kept for 30 minutes at room temperature and protected from light. • 3) Amplex Red reagent+HRP+benzylamine substrate working solution preparation: • Amplex Red reagent+HRP+benzylamine substrate working solution (200 μM Amplex Red reagent+1 U/mL HRP+1 mM benzylamine): 45 μL of 20 mM Amplex Red reagent mother liquor, 22.5 μL of 200 U/mL horseradish peroxidase (HRP) mother liquor and 45 μL of 100 mM benzylamine were added to 4.3875 mL of 1× reaction buffer. • 4) After 30 minutes, 25 μL of the substrate working solution was added to a 384-well plate. […]

[3] = listed as crystal form B of the compound of formula (IV)

Sequence of VAP-1/SSAO cell (Q16853 whole entry): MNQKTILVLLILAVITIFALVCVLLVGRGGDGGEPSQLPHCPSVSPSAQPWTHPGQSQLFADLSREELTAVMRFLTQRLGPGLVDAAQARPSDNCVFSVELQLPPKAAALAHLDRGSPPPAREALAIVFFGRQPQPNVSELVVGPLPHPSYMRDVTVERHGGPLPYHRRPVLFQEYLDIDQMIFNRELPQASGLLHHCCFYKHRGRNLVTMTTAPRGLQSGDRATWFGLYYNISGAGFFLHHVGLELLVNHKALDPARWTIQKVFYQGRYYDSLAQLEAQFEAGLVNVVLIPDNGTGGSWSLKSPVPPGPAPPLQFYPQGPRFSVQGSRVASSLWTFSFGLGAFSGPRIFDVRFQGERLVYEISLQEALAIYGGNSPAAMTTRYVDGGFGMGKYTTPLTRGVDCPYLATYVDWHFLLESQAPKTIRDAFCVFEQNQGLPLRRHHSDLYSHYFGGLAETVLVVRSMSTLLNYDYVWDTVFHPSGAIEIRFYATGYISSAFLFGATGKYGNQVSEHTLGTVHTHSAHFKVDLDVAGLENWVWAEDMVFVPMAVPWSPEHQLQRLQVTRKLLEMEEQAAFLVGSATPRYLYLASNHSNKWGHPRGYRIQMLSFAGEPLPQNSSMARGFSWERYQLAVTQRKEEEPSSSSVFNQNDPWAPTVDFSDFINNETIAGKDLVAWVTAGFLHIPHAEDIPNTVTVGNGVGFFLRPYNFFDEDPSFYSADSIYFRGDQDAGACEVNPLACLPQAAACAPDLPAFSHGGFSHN
Sequence of Human recombinant VAP-1/SSAO enzyme (Q16853 whole entry): as above

Stability (general statement in words) [1]: good stability
Structure (SMILES): CC(C)n1nc(-c2ccc(OC/C(=C/F)CN)cc2)nc1C1CC1 [Crystal form A]

Inhibitory activity against human recombinant VAP-1/SSAO enzyme (conclusion in words) [2]: strong inhibitory activity
Inhibitory activity against VAP-1/SSAO cells (conclusion in words) (VAP-1/SSAO cell): strong inhibitory activity
Structure (SMILES): CC(C)n1nc(-c2ccc(OC/C(=C/F)CN)cc2)nc1C1CC1 [Compound of formula (IV)]

IC50 ([2]; 30 min preincubation, benzylamine substrate, read-out: Human recombinant VAP-1/SSAO enzyme inhibitory activity IC50): 0.71 ± 0.21 nM
Inhibitory activity against human recombinant VAP-1/SSAO enzyme (conclusion in words) [2, 3]: strong inhibitory activity
IC50 (VAP-1/SSAO cell; VAP-1 transfected HUVEC or CHO cells, read-out: VAP-1/SSAO cell activity assay test IC50): 2.2 ± 1.49 nM
Inhibitory activity against VAP-1/SSAO cells (conclusion in words) (VAP-1/SSAO cell; [3]): strong inhibitory activity
Structure (SMILES): CC(C)n1nc(-c2ccc(OC/C(=C/F)CN)cc2)nc1C1CC1
